Results taken from US20200038420A1, “AMINOSTEROL COMPOSITIONS AND METHODS OF USING THE SAME FOR TREATING DEPRESSION” (Enterin, Inc., priority 2018, published 2020).
“Also recorded” adds a separate entry of the source. Structures can show the parent of a compound that is named as a salt. Where two headings read alike, the source gives them in different places.

Columns and labels:
[1] = tested on: patients with PD and constipation; experiment: Adverse events, Phase 2 trial Stage 1 (single escalating oral doses); assay type: in vivo, human; settings: Stage 1 (10 dosed), single escalating oral doses 25-200 mg
Source text: (§1) Tolerability limits included diarrhea or vomiting.

[2] = tested on: patients with PD and constipation; experiment: Adverse events, Phase 2 trial Stage 2 (daily oral dosing); assay type: in vivo, human; settings: Stage 2 (34 dosed), daily oral doses 75-250 mg
Method: (§2) In Stage 2, 34 patients were evaluated.

[3] = tested on: patients with PD and constipation; experiment: Prokinetic response (CSBM within 24 hours of dosing), Stage 1; assay type: in vivo, human; settings: Stage 1 (single dose)
Source text: as §1

[4] = tested on: patients with PD and constipation; experiment: Bowel function / stool related indices, Stage 2; assay type: in vivo, human; settings: Stage 2 (daily dosing), at 75 mg
Method: Following successful screening, all subjects underwent a 14-day run-in period where the degree of constipation was assessed through a validated daily log (Zinsmeister et al. 2013) establishing baseline CSBMs/week. Subjects with an average of <3 CSBMs/week proceeded to dosing.
as §2
The primary efficacy outcome variable was whether or not a subject was a “success” or “failure”. This is an endpoint based on subject diary entries for the “fixed dose” period prior to the endpoint assessment defined as average complete stool frequency increase by 1 or more over baseline, or 3 or more complete spontaneous stools/week. The subject was deemed a “success” if s/he met one or more of the criteria listed above, otherwise the subject was deemed a “failure”. The primary analysis was based on all subjects with a baseline assessment and an assessment at the end of the “fixed-dose” period and was a comparison of the proportion of successes with 0.10 (the null hypothesis corresponding to no treatment effect).

[5] = tested on: patients with PD and constipation; experiment: CNS / neurological symptoms, Stage 2 (UPDRS, MMSE, PDHQ, BDI-II); assay type: in vivo, human
Source text: Exploratory end-points, in addition to constipation, included for example, (i) depression assessed using the Beck Depression Inventory (BDI-II) (Steer et al. 2000) and Unified Parkinson's Disease Rating Scale (UPDRS); (ii) cognition assessed using the Mini Mental State Examination (MMSE) (Palsteia et al. 2018), Unified Parkinson's Disease Rating Scale (UPDRS), and Trail Making Test (TMT); (iii) sleep and REM-behavior disorder (RBD) using a daily sleep diary, I-Button Temperature Assessment, a REM sleep behavior disorder (RBD) questionnaire (RBDQ) (Stiasny-Kolster et al. 2007), and the UPDRS; (iv) hallucinations assessed using the PD hallucinations questionnaire (PDHQ) (Papapetropoulos et al. 2008), the UPDRS, and direct questioning; (v) fatigue using the Parkinson's Disease Fatigue Scale (PFS-16) and the UPDRS; (vi) motor functions using the UPDRS; and (vii) non-motor functions using the UPDRS.
(§3) Assessments were made at baseline and at the end of the fixed dose and washout periods. Circadian system status was evaluated by continuously monitoring wrist skin temperature (Thermochron iButton DS1921H; Maxim, Dallas) following published procedures (Sarabia et al. 2008).
An exploratory analysis was done with respect to the sleep data, the body temperature data, mood, fatigue, hallucinations, cognition and other motor and non-motor symptoms of PD. […]

[6] = tested on: patients with PD and constipation; experiment: Circadian rhythm of wrist skin temperature; assay type: in vivo, human; settings: 12 patients
Method: (6) I-Button Temperature Assessment. The I-Button is a small, rugged self-sufficient system that measures temperature and records the results in a protected memory section. The Thermochron I-Button DS1921H (Maxim Integrated, Dallas, Tex.) was used for skin temperature measurement. I-Buttons were programmed to sample every 10 mins., and attached to a double-sided cotton sport wrist band using Velcro, with the sensor face of the I-Button placed over the inside of the wrist, on the radial artery of the dominant hand. Subjects removed and replaced the data logger when necessary (i.e., to have a bath or shower). […] From the collected data, the mesor, amplitude, acrophase (time of peak temperature), Rayleight test (an index of interdaily stability), mean waveforms are calculated.);
as §3
Circadian rhythm of skin temperature was evaluable in 12 patients (i.e., those who had recordings that extended from baseline through washout). Circadian system functionality was evaluated by continuously monitoring wrist skin temperature using a temperature sensor (Thermochron iButton DS1921H; Maxim, Dallas, Tex.) (Sarabia et al. 2008). […]

[7] = Oral bioavailability in PD patients (oral PK compared with prior IV PK); assay type: in vivo, human; settings: this study
Method: PK data were collected on the 10 patients enrolled in Stage 1 and 10 patients enrolled in Stage 2 to determine the extent of systemic absorption. In Stage 1, PK data were obtained at each visit, pre-medication, at 1, 2, 4, 8 and 24 hours (Table 10). In Stage 2, PK was measured on days 1 and 6 of the randomization period pre-medication, at 1, 2, 4 and 8 hours (Table 11).

αS = αS (Homo sapiens, UniProt P37840); settings: in vitro; cited from earlier work
C. elegans αS model = settings: cited from earlier work; for Formation of αS aggregates: in vivo, C. elegans model of PD
mouse models of PD = settings: cited from earlier work
[8] = tested on: IPANs (intrinsic primary afferent neuron); settings: perfusion through the lumen of isolated bowel segment; increased frequency of propulsive peristaltic contractions; cited from earlier work
[9] = mice; into the duodenum through the biliary tract; cited from earlier work
[10] = cited from earlier work

## CC(C)[C@@H](CC[C@@H](C)[C@H]1CC[C@H]2[C@@H]3[C@H](O)C[C@H]4C[C@@H](NCCCNCCCCN)CC[C@]4(C)[C@H]3CC[C@]12C)OS(=O)(=O)O (single isomer, unassigned) [squalamine (ENT-01), squalamine]
[1]
  Abdominal pain, Mild: 2(20) n, %
  Abdominal pain, Moderate: 3(30) n, %
  Diarrhea, Mild: 1(10) n, %
  Diarrhea, Moderate: 3(30) n, %
  Diarrhea, Severe: 0 n, %
  Difficulty falling asleep, Mild: 0 n, %
  Difficulty falling asleep, Moderate: 0 n, %
  Dizziness, Mild: 0 n, %
  Dizziness, Moderate: 0 n, %
  Eye infection, Mild: 0 n, %
  Eye infection, Moderate: 0 n, %
  Flatulence, Mild: 2(20) n, %
  Flatulence, Moderate: 0 n, %
  Headache, Mild: 1(10) n, %
  Headache, Moderate: 0 n, %
  Increased urinary frequency, Mild: 0 n, %
  Increased urinary frequency, Moderate: 0 n, %
  Nausea, Mild: 4(40) n, %
  Nausea, Moderate: 0 n, %
  Skin lesions-rash, Mild: 0 n, %
  Skin lesions-rash, Moderate: 0 n, %
  Urinary retention, Mild: 0 n, %
  Urinary retention, Moderate: 0 n, %
  Urinary tract infection, Mild: 0 n, %
  Urinary tract infection, Moderate: 0 n, %
  Vomiting, Mild: 1(10) n, %
  Vomiting, Moderate: 0 n, %
  Worsening acid reflux, Mild: 0 n, %
  Worsening acid reflux, Moderate: 0 n, %
  Worsening hemorrhoid, Mild: 0 n, %
  Worsening hemorrhoid, Moderate: 0 n, %
[1]; unrelated to ENT-01
  Blood in urine, Mild: 1(10) n, %
  Blood in urine, Moderate: 0 n, %
  Loss of appetite, Mild: 1(10) n, %
  Loss of appetite, Moderate: 0 n, %
  Lower GI bleed, Severe: 0 n, %
[2]
  Diarrhea, Mild: 12(35)^ n, %
  Difficulty falling asleep, Mild: 1(3)^ n, %
  Difficulty falling asleep, Moderate: 0 n, %
  Eye infection, Mild: 1(3)^ n, %
  Eye infection, Moderate: 0 n, %
  Flatulence, Mild: 1(3)^ n, %
  Flatulence, Moderate: 0 n, %
  Headache, Moderate: 0 n, %
  Increased urinary frequency, Moderate: 0 n, %
  Nausea, Mild: 18(52)^ n, %
  Skin lesions-rash, Moderate: 0 n, %
  Urinary retention, Mild: 1(3)^ n, %
  Urinary retention, Moderate: 0 n, %
  Urinary tract infection, Mild: 1(3)^ n, %
  Vomiting, Moderate: 0 n, %
  Worsening acid reflux, Moderate: 0 n, %
  Worsening hemorrhoid, Mild: 1(3)^ n, %
  Worsening hemorrhoid, Moderate: 0 n, %
[2]; unrelated to ENT-01
  Blood in urine, Mild: 0 n, %
  Blood in urine, Moderate: 0 n, %
  Loss of appetite, Mild: 0 n, %
  Loss of appetite, Moderate: 0 n, %
[3]; at 25 mg
  Cumulative prokinetic response rate: 25%
[3]; maximum, at 200 mg
  Cumulative prokinetic response rate: 80%
[4]
  Prokinetic response rate: 26%
[5]; Stage 2, 5 patients with hallucinations and 1 with delusions at baseline
  Patients in whom hallucinations and delusions improved or disappeared during treatment: 5 of 6
[5]; baseline 11.6 to wash-out 9.5
  Improvement of UPDRS Part 1 score: ~20%
[6]; fixed dose versus baseline
  Circadian rhythm parameters (IS, RA, CFI, IV): improved all markers of healthy circadian function
[6]; wash-out period
  Circadian rhythm parameters (IS, CFI): improvement persisted for several of these circadian parameters
[7]
  Systemic absorption following oral administration: not significantly absorbed into the systemic circulation
[7]; listed as aminosterol
  Systemic absorption following oral administration: negligible
αS
  Formation of αS aggregates: inhibits the formation of αS aggregates
C. elegans αS model; C. elegans αS model
  Muscle paralysis / motor dysfunction: reverses motor dysfunction; also recorded: complete reversal of muscle paralysis
C. elegans αS model; listed as ENT-01
  Formation of αS aggregates: inhibit the formation of aggregates of αS
C. elegans αS model; listed as squalamine
  Formation of αS aggregates: inhibits the formation of αS aggregates
Mouse models of PD; oral, mice with constipation due to overexpression of human αS
  Gastro-intestinal motility: stimulates gastro-intestinal motility
Mouse models of PD; several mouse models of PD
  Gastrointestinal motility / dysmotility: restores gastrointestinal motility; also recorded: reverse gastrointestinal dysmotility
[8]
  Effect on enteric sensory neurons: excitation of IPANs
[9]
  Clearance and excretion following systemic administration: cleared by the liver and excreted as the intact molecule
[10]; intravenous, prior studies
  Gastrointestinal motility after intravenous administration: not associated with increased gastrointestinal motility
[10]; prior studies
  Systemic blood levels, intravenous versus orally administered squalamine: one thousand-fold greater

## CC(C)[C@@H](CC[C@@H](C)[C@H]1CC[C@H]2[C@@H]3[C@H](O)C[C@H]4C[C@@H](NCCCNCCCCN)CC[C@]4(C)[C@H]3CC[C@]12C)OS(=O)(=O)O [Squalamine dilactate salt]
[10]; intravenous, alone or in combination with other agents, Phase 1 and Phase 2 trials
  Well tolerated dose, single and repeat intravenous administration: at least 300 mg/m^2
